Each structure is given as a SMILES string.

The DC50 is the concentration at which degradation of the target reaches its halfway point. Read a high DC50 as a less potent degrader.

T1 sequence (P01116 1-188 isoform P01116-2 G12D): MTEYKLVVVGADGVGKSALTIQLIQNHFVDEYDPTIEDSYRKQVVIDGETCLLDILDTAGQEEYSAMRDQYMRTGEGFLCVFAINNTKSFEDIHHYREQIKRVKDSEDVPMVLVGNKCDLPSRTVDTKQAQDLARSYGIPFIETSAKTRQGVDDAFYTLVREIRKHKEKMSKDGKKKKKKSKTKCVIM

The test has as its target T1, KRAS (G12D) (Homo sapiens, UniProt P01116, G12D).
T1 construct: in-cell western with KRAS G12D antibody after 24 h
As to the kind of experiment: KRAS (G12D) cellular degradation assay in AsPC-1 cells. Type of test: cell-based. The following applies: 24 hours, antibody fluorescence (Odyssey CLX), DC50 half-maximal degradation concentration. Summed up: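 AsPC-1 cells: for degradation, grown to ~90% confluency, treated 24 h with 1:3 compound series ([…] to 1.5 nM), then fixed and immunostained for KRAS G12D and β-actin, read by infrared fluorescence, DC50 fitted. Proliferation: 3,500 cells/well, 6-day treatment, CellTiter Glo luminescence, IC50 fitted.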
Consider `CO[C@@H](C)COc1nc(N2C[C@@H]3C[C@H]2CN3)c2cc(C3CC3)c(-c3c(C)c(F)cc4[nH]ncc34)c(OCc3ccc(-c4cn([C@H](C(=O)N5C[C@H](O)C[C@H]5C(=O)N[C@H](C#Cc5cncc6nn(C)cc56)CO)C(C)C)nn4)cc3)c2n1` [Example 185, (2S,4R)-1-((2S)-2-(4-(4-(((4-((1S,4S)-2,5-diazabicyclo[2.2.1]heptan-2-yl)-6-cyclopropyl-7-(6-fluoro-5-methyl-1H-indazol-4-yl)-2-((S)-2-methoxypropoxy)quinazolin-8-yl)oxy)methyl)phenyl)-1H-1,2,3-triazol-1l-yl)-3-methylbutanoyl)-4-hydroxy-N—((R)-1-hydroxy-4-(2-methyl-2H-pyrazolo[3,4-c]pyridin-4-yl)but-3-yn-2-yl)pyrrolidine-2-carboxamide], for which the DC50 fell in the range of 10 to 100 nM. To `CO[C@@H](C)COc1nc(N2C[C@@H]3C[C@H]2CN3)c2cc(C3CC3)c(-c3c(C)c(F)cc4[nH]ncc34)c(OCc3ccc(-c4cn([C@H](C(=O)N5C[C@H](O)C[C@H]5C(=O)N[C@H](C#Cc5ccnc6nn(C)cc56)CO)C(C)C)nn4)cc3)c2n1` [Example 191, (2S,4R)-1-((2S)-2-(4-(4-(((4-((1S,4S)-2,5-diazabicyclo[2.2.1]heptan-2-yl)-6-cyclopropyl-7-(6-fluoro-5-methyl-1H-indazol-4-yl)-2-((S)-2-methoxypropoxy)quinazolin-8-yl)oxy)methyl)phenyl)-1H-1,2,3-triazol-1-yl)-3-methylbutanoyl)-4-hydroxy-N—((R)-1-hydroxy-4-(2-methyl-2H-pyrazolo[3,4-b]pyridin-4-yl)but-3-yn-2-yl)pyrrolidine-2-carboxamide] belongs 10 to 100 nM; to `CCn1nccc1-c1ccc([C@@H](NC(=O)[C@@H]2C[C@@H](O)CN2C(=O)[C@H](C(C)C)n2cc(-c3ccc(COc4c(-c5c(C)c(F)cc6[nH]ncc56)c(C5CC5)cc5c(N6C[C@@H]7C[C@H]6CN7)nc(O[C@H]6C[C@H](OC)C6)nc45)cc3)nn2)[C@H](C)O)nc1` [Example 200, (2S,4R)-1-((2S)-2-(4-(4-(((4-((1S,4S)-2,5-diazabicyclo[2.2.1]heptan-2-yl)-6-cyclopropyl-7-(6-fluoro-5-methyl-1H-indazol-4-yl)-2-((1r,3S)-3-methoxycyclobutoxy)quinazolin-8-yl)oxy)methyl)phenyl)-1H-1,2,3-triazol-1-yl)-3-methylbutanoyl)-N-((1R,2S)-1-(5-(1-ethyl-1H-pyrazol-5-yl)pyridin-2-yl)-2-hydroxypropyl)-4-hydroxypyrrolidine-2-carboxamide], less than 10 nM; to `CCn1nccc1-c1ccc([C@@H](NC(=O)[C@@H]2C[C@@H](O)CN2C(=O)[C@H](C(C)C)n2cc(-c3ccc(COc4c(-c5c(C)c(F)cc6[nH]ncc56)c(C5CC5)cc5c(N(C)[C@H]6CCNC6)nc(OC[C@H]6CCCO6)nc45)cc3)nn2)[C@H](C)O)c2c1CC2` [Example 209, (2S,4R)-1-((2S)-2-(4-(4-(((6-cyclopropyl-7-(6-fluoro-5-methyl-1H-indazol-4-yl)-4-(methyl((S)-pyrrolidin-3-yl)amino)-2-(((R)-tetrahydrofuran-2-yl)methoxy)quinazolin-8-yl)oxy)methyl)phenyl)-1H-1,2,3-triazol-1-yl)-3-methylbutanoyl)-N-((1R,2S)-1-(5-(1-ethyl-1H-pyrazol-5-yl)bicyclo[4.2.0]octa-1(6),2,4-trien-2-yl)-2-hydroxypropyl)-4-hydroxypyrrolidine-2-carboxamide], less than 10 nM. The compound `CCn1nccc1-c1ccc([C@@H](NC(=O)[C@@H]2C[C@@H](O)CN2C(=O)[C@H](C(C)C)n2cc(-c3ccc(COc4c(-c5c(C)c(F)cc6[nH]ncc56)c(C5CC5)cc5c(N(C)[C@H]6CCNC6)nc(OC[C@@H]6CCCO6)nc45)cc3)nn2)[C@H](C)O)c2c1CC2` [Example 210, (2S,4R)-1-((2S)-2-(4-(4-(((6-cyclopropyl-7-(6-fluoro-5-methyl-1H-indazol-4-yl)-4-(methyl((S)-pyrrolidin-3-yl)amino)-2-(((S)-tetrahydrofuran-2-yl)methoxy)quinazolin-8-yl)oxy)methyl)phenyl)-1H-1,2,3-triazol-1-yl)-3-methylbutanoyl)-N-((1R,2S)-1-(5-(1-ethyl-1H-pyrazol-5-yl)bicyclo[4.2.0]octa-1(6),2,4-trien-2-yl)-2-hydroxypropyl)-4-hydroxypyrrolidine-2-carboxamide] had a DC50 of less than 10 nM. `CCn1nccc1-c1ccc([C@@H](NC(=O)[C@@H]2C[C@@H](O)CN2C(=O)[C@H](C(C)C)n2cc(-c3ccc(COc4c(-c5c(C)c(F)cc6[nH]ncc56)c(C5CC5)cc5c(N(C)[C@@H]6CCNC6)nc(O[C@H]6C[C@H](OC)C6)nc45)cc3)nn2)[C@H](C)O)c2c1CC2` [Example 211, (2S,4R)-1-((2S)-2-(4-(4-(((6-cyclopropyl-7-(6-fluoro-5-methyl-1H-indazol-4-yl)-2-((1r,3R)-3-methoxycyclobutoxy)-4-(methyl((R)-pyrrolidin-3-yl)amino)quinazolin-8-yl)oxy)methyl)phenyl)-1H-1,2,3-triazol-1-yl)-3-methylbutanoyl)-N-((1R,2S)-1-(5-(1-ethyl-1H-pyrazol-5-yl)bicyclo[4.2.0]octa-1(6),2,4-trien-2-yl)-2-hydroxypropyl)-4-hydroxypyrrolidine-2-carboxamide] registered a DC50 of less than 10 nM.

On to `CO[C@@H]1CC[C@@H](Oc2nc(N3C[C@@H]4C[C@H]3CN4)c3cc(C4CC4)c(-c4c(C)c(F)cc5[nH]ncc45)c(OCc4ccc(-c5cn([C@H](C(=O)N6C[C@H](O)C[C@H]6C(=O)N[C@H](c6ccc(-c7scnc7C)cc6)[C@H](C)O)C(C)C)nn5)cc4)c3n2)C1` [Example 212], for which the DC50 is less than 10 nM. With `Cc1ncsc1-c1ccc([C@H](CO)NC(=O)[C@@H]2C[C@@H](O)CN2C(=O)[C@H](C(C)C)n2cc(-c3ccc(COc4c(-c5c(C)c(F)cc6[nH]ncc56)c(C5CC5)cc5c(N6CCCNCC6)nc(OC[C@H]6CCCO6)nc45)cc3)nn2)cc1` [Example 213, (2S,4R)-1-((2S)-2-(4-(4-(((6-cyclopropyl-4-(1,4-diazepan-1-yl)-7-(6-fluoro-5-methyl-1H-indazol-4-yl)-2-(((R)-tetrahydrofuran-2-yl)methoxy)quinazolin-8-yl)oxy)methyl)phenyl)-1H-1,2,3-triazol-1-yl)-3-methylbutanoyl)-4-hydroxy-N—((R)-2-hydroxy-1-(4-(4-methylthiazol-5-yl)phenyl)ethyl)pyrrolidine-2-carboxamide], the DC50 is less than 10 nM. As to `CCn1nccc1-c1ccc([C@H](CO)NC(=O)[C@@H]2C[C@@H](O)CN2C(=O)[C@H](C(C)C)n2cc(-c3ccc(COc4c(-c5c(C)c(F)cc6[nH]ncc56)c(C5CC5)cc5c(N6CCCNCC6)nc(OC[C@H]6CCCO6)nc45)cc3)nn2)cc1` [Example 214, (2S,4R)-1-((2S)-2-(4-(4-(((6-cyclopropyl-4-(1,4-diazepan-1-yl)-7-(6-fluoro-5-methyl-1H-indazol-4-yl)-2-(((R)-tetrahydrofuran-2-yl)methoxy)quinazolin-8-yl)oxy)methyl)phenyl)-1H-1,2,3-triazol-1-yl)-3-methylbutanoyl)-N—((R)-1-(4-(1-ethyl-1H-pyrazol-5-yl)phenyl)-2-hydroxyethyl)-4-hydroxypyrrolidine-2-carboxamide], the DC50 is less than 10 nM. `CO[C@H]1CC[C@H](Oc2nc(N3C[C@@H]4C[C@H]3CN4)c3cc(C4CC4)c(-c4c(C)c(F)cc5[nH]ncc45)c(OCc4ccc(-c5cn([C@H](C(=O)N6C[C@H](O)C[C@H]6C(=O)N[C@H](c6ccc(-c7scnc7C)cc6)[C@H](C)O)C(C)C)nn5)cc4)c3n2)C1` [Example 215, (2S,4R)-1-((2S)-2-(4-(4-(((4-((1S,4S)-2,5-diazabicyclo[2.2.1]heptan-2-yl)-6-cyclopropyl-7-(6-fluoro-5-methyl-1H-indazol-4-yl)-2-(((1S,3S)-3-methoxycyclopentyl)oxy)quinazolin-8-yl)oxy)methyl)phenyl)-1H-1,2,3-triazol-1-yl)-3-methylbutanoyl)-4-hydroxy-N-((1R,2S)-2-hydroxy-1-(4-(4-methylthiazol-5-yl)phenyl)propyl)pyrrolidine-2-carboxamide] registered a half-maximal degradation concentration (DC50) of less than 10 nM. `CCn1nccc1-c1ccc([C@H](CO)NC(=O)[C@@H]2C[C@@H](O)CN2C(=O)[C@H](C(C)C)n2cc(-c3ccc(COc4c(-c5c(C)c(F)cc6[nH]ncc56)c(C5CC5)cc5c(N(C)C[C@@H]6CCNC6)nc(OC[C@H](C)OC)nc45)cc3)nn2)cc1` [Example 216, (2S,4R)-1-((2S)-2-(4-(4-(((6-cyclopropyl-7-(6-fluoro-5-methyl-1H-indazol-4-yl)-2-((S)-2-methoxypropoxy)-4-(methyl(((R)-pyrrolidin-3-yl)methyl)amino)quinazolin-8-yl)oxy)methyl)phenyl)-1H-1,2,3-triazol-1-yl)-3-methylbutanoyl)-N—((R)-1-(4-(1-ethyl-1H-pyrazol-5-yl)phenyl)-2-hydroxyethyl)-4-hydroxypyrrolidine-2-carboxamide] displayed a DC50 of less than 10 nM. `CCn1nccc1-c1ccc([C@H](CO)NC(=O)[C@@H]2C[C@@H](O)CN2C(=O)[C@H](C(C)C)n2cc(-c3ccc(COc4c(-c5c(C)c(F)cc6[nH]ncc56)c(C5CC5)cc5c(N6CCC(O)CC6)nc(OC[C@H](C)OC)nc45)cc3)nn2)cc1` [Example 217, (2S,4R)-1-((2S)-2-(4-(4-(((6-cyclopropyl-7-(6-fluoro-5-methyl-1H-indazol-4-yl)-4-(4-hydroxypiperidin-1-yl)-2-((S)-2-methoxypropoxy)quinazolin-8-yl)oxy)methyl)phenyl)-1H-1,2,3-triazol-1-yl)-3-methylbutanoyl)-N—((R)-1-(4-(1-ethyl-1H-pyrazol-5-yl)phenyl)-2-hydroxyethyl)-4-hydroxypyrrolidine-2-carboxamide] displayed a DC50 of less than 10 nM.

The record behind these values is patent publication US20260295053A1, “COMPOUNDS FOR DEGRADATION AND INHIBITION OF KRAS (G12D) PROTEIN” (Shenzhen Ionova Life Science Co., Ltd., priority 2023, published 2026).
